Data: patent US9216978B2, “Ring-fused pyrimidines and triazines and use thereof for the treatment and/or prophylaxis of cardiovascular diseases” (BAYER INTELLECTUAL PROPERTY GMBH, priority 2010, dated 2015)

Legend:
[1] = molecular target: T1, recombinant guanylate cyclase reporter cell line (Rattus norvegicus, UniProt P19686+P20595); assay: Action on recombinant guanylate cyclase reporter cell line; format: cell-based
T1 construct: expressed in transfected cells
T1 sequence (P20595 1-619): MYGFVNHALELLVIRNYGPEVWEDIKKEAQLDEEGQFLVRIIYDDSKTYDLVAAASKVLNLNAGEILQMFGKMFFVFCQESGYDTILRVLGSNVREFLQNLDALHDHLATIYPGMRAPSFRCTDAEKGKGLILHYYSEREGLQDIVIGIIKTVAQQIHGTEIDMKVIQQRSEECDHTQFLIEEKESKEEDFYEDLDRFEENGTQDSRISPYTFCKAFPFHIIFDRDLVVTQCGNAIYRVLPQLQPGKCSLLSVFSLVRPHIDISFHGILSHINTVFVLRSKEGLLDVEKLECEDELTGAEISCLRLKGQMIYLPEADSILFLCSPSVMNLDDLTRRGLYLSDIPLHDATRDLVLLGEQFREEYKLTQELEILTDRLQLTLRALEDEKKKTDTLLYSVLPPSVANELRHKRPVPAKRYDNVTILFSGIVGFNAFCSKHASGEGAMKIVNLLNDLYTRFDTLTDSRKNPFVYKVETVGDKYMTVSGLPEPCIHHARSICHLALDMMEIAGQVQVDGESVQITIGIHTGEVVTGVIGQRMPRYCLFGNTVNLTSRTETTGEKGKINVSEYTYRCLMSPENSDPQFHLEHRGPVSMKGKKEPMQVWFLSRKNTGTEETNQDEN
T1 sequence (P19686 1-690): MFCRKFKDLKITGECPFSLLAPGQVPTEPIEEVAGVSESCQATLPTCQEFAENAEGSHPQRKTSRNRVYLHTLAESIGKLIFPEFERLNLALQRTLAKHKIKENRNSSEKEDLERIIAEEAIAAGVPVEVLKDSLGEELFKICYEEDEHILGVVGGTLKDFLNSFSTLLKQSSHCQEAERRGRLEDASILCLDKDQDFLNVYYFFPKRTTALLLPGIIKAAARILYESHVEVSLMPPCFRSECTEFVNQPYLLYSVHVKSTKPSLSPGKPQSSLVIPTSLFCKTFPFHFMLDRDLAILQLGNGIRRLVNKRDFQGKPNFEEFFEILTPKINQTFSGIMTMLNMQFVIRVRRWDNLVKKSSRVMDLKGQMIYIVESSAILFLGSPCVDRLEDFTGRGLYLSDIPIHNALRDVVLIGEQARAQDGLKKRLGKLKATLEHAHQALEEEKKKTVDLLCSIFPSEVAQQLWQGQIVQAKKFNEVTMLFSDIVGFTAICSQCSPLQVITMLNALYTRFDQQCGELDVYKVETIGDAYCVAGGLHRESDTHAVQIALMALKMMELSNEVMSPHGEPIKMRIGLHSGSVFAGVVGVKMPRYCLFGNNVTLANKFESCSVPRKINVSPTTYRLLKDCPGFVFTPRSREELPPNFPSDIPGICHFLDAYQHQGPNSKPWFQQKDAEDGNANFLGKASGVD
Protocol: B-2. Action on Recombinant Guanylate Cyclase Reporter Cell Line
The cellular action of the compounds according to the invention is determined on a recombinant guanylate cyclase reporter cell line, as described in F. Wunder et al., Anal. Biochem. 339, 104-112 (2005).

aorta = assay: Vessel-relaxing action in vitro (phenylephrine-contracted aorta rings); conditions: Oryctolagus cuniculus; rabbit aorta rings, phenylephrine contraction; concentration reducing control contraction by 50%
Protocol: B-1. Vessel-Relaxing Action In Vitro
Rabbits are stunned with a blow on the back of the neck and exsanguinated. The aorta is removed, freed from adhering tissue, separated into rings with a width of 1.5 mm, and placed individually, with preloading, in 5-ml organ baths with carbogen-gassed Krebs-Henseleit solution at 37° C. with the following composition (mM in each case): sodium chloride: 119; potassium chloride: 4.8; calcium chloride dihydrate: 1; magnesium sulphate heptahydrate: 1.4; potassium dihydrogen phosphate: 1.2; sodium hydrogen carbonate: 25; glucose: 10. The contraction force is recorded with Statham UC2 cells, amplified and digitized via an A/D converter (DAS-1802 HC, Keithley Instruments Munich) and recorded in parallel on a continuous-line recorder. To produce contraction, phenylephrine is added to the bath cumulatively in increasing concentration. After several control cycles, the test substance is added in increasing dosage in each subsequent pass and the level of contraction is compared with the level of contraction reached in the immediately preceding pass. This is used for calculating the concentration that is required to reduce the level of the control value by 50% (IC50 value). The standard application volume is 5 μl, and the proportion of DMSO in the bath solution corresponds to 0.1%.

MEC (minimal effective concentration) [1] | IC50 (aorta) | SMILES
0.01 µM | 12 nM | CC1(C)C(=O)Nc2nc(-c3nn(Cc4ccccc4F)c4ncc(F)cc34)ncc21 [Example 2, 2-[5-Fluoro-1-(2-fluorobenzyl)-1H-pyrazolo[3,4-b]pyridin-3-yl]-5,5-dimethyl-5,7-dihydro-6H-pyrrolo[2,3-d]pyrimidin-6-one]
0.03 µM |  | O=C1Nc2nc(-c3nn(Cc4ccccc4F)c4ncccc34)ncc2C12CCOC2 (stereo not shown) [Example 3, 2′-[1-(2-Fluorobenzyl)-1H-pyrazolo[3,4-b]pyridin-3-yl]-4,5-dihydrospiro[furan-3,5′-pyrrolo[2,3-d]pyrimidin]-6′(7′H)-one]
0.03 µM |  | O=C1Cc2cnc(-c3nn(Cc4ccccc4F)c4ncccc34)nc2N1 [Example 4, 2-[1-(2-Fluorobenzyl)-1H-pyrazolo[3,4-b]pyridin-3-yl]-5,7-dihydro-6H-pyrrolo[2,3-d]pyrimidin-6-one]
0.03 µM |  | O=C1Nc2nc(-c3nn(Cc4ccccc4F)c4ncccc34)ncc2C12CC2 [Example 5, 2′-[1-(2-Fluorobenzyl)-1H-pyrazolo[3,4-b]pyridin-3-yl]spiro[cyclopropane-1,5′-pyrrolo[2,3-d]pyrimidin]-6′(7′H)-one]
0.03 µM |  | O=C1Cc2nnc(-c3nn(Cc4ccccc4F)c4ncccc34)nc2N1 [Example 6, 3-[1-(2-Fluorobenzyl)-1H-pyrazolo[3,4-b]pyridin-3-yl]-5,7-dihydro-6H-pyrrolo[2,3-e][1,2,4]-triazin-6-one]
0.03 µM | 45 nM | CC1(C)C(=O)Nc2nc(-c3nn(Cc4ccccc4F)c4ncccc34)nc(C(F)F)c21 [Example 7, 4-(Difluoromethyl)-2-[1-(2-fluorobenzyl)-1H-pyrazolo[3,4-b]pyridin-3-yl]-5,5-dimethyl-5,7-dihydro-6H-pyrrolo[2,3-d]pyrimidin-6-one]
0.03 µM | 13 nM | O=C1Nc2nc(-c3nn(Cc4ccc(F)cc4F)c4ncccc34)ncc2C12CC2 [Example 8, 2′-[1-(2,4-Difluorobenzyl)-1H-pyrazolo[3,4-b]pyridin-3-yl]spiro[cyclopropane-1,5′-pyrrolo[2,3-d]pyrimidin]-6′(7′H)-one]
0.03 µM | 6 nM | O=C1Nc2nc(-c3nn(Cc4cccc(F)c4F)c4ncccc34)ncc2C12CC2 [Example 10, 2′-[1-(2,3-Difluorobenzyl)-1H-pyrazolo[3,4-b]pyridin-3-yl]spiro[cyclopropane-1,5′-pyrrolo[2,3-d]pyrimidin]-6′(7′H)-one]
0.03 µM | 4 nM | CC1(C)C(=O)Nc2nc(-c3nn(Cc4cccc(F)c4F)c4ncccc34)ncc21 [Example 11, 2-[1-(2,3-Difluorobenzyl)-1H-pyrazolo[3,4-b]pyridin-3-yl]-5,5-dimethyl-5,7-dihydro-6H-pyrrolo[2,3-d]pyrimidin-6-one]
0.1 µM |  | CC1(C)C(=O)Nc2nc(-c3nn(Cc4ccccc4F)c4ncccc34)nc(C3CC3)c21 [Example 12, 4-Cyclopropyl-2-[1-(2-fluorobenzyl)-1H-pyrazolo[3,4-b]pyridin-3-yl]-5,5-dimethyl-5,7-dihydro-6H-pyrrolo[2,3-d]pyrimidin-6-one]
0.1 µM |  | CC1(C)C(=O)Nc2nc(-c3nn(Cc4ccc(F)cc4F)c4ncccc34)ncc21 [Example 13, 2-[1-(2,4-Difluorobenzyl)-1H-pyrazolo[3,4-b]pyridin-3-yl]-5,5-dimethyl-5,7-dihydro-6H-pyrrolo[2,3-d]pyrimidin-6-one]
0.1 µM | 65 nM | CC1CC(=O)Nc2nc(-c3nn(Cc4ccccc4F)c4ncccc34)ncc21 (stereo not shown) [Example 14, 2-[1-(2-Fluorobenzyl)-1H-pyrazolo[3,4-b]pyridin-3-yl]-5-methyl-5,8-dihydropyrido[2,3-d]-pyrimidin-7(6H)-one]
0.3 µM |  | O=C1CC(C(F)(F)F)c2cnc(-c3nn(Cc4ccccc4F)c4ncccc34)nc2N1 (stereo not shown) [Example 15, 2-[1-(2-Fluorobenzyl)-1H-pyrazolo[3,4-b]pyridin-3-yl]-5-(trifluoromethyl)-5,8-dihydropyrido[2,3-d]pyrimidin-7(6H)-one]
1.0 µM |  | O=C1Nc2nc(-c3nn(Cc4ccccc4F)c4ncccc34)ncc2C1=O [Example 16, 2-[1-(2-Fluorobenzyl)-1H-pyrazolo[3,4-b]pyridin-3-yl]-5H-pyrrolo[2,3-d]pyrimidine-5,6(7H)-dione]
0.1 µM | 13 nM | CC1(O)C(=O)Nc2nc(-c3nn(Cc4ccccc4F)c4ncccc34)ncc21 (stereo not shown) [Example 17, 2-[1-(2-Fluorobenzyl)-1H-pyrazolo[3,4-b]pyridin-3-yl]-5-hydroxy-5-methyl-5,7-dihydro-6H-pyrrolo[2,3-d]pyrimidin-6-one]
0.1 µM |  | CC1(C)C(=O)Nc2nc(-c3nn(Cc4ccc(F)cc4F)c4ncc(F)cc34)nnc21 [Example 21, 3-[1-(2,4-Difluorobenzyl)-5-fluoro-1H-pyrazolo[3,4-b]pyridin-3-yl]-7,7-dimethyl-5,7-dihydro-6H-pyrrolo[2,3-e][1,2,4]triazin-6-one]
1.0 µM |  | O=C(O)CC1(O)C(=O)Nc2nc(-c3nn(Cc4ccccc4F)c4ncccc34)ncc21 (stereo not shown) [Example 25, {2-[1-(2-Fluorobenzyl)-1H-pyrazolo[3,4-b]pyridin-3-yl]-5-hydroxy-6-oxo-6,7-dihydro-5H-pyrrolo[2,3-d]pyrimidin-5-yl}acetic acid]
0.1 µM |  | CC1(C)C(=O)Nc2nc(-c3nn(Cc4c(F)ccc(F)c4F)c4ncc(F)cc34)nnc21 [Example 29, 3-[5-Fluoro-1-(2,3,6-trifluorobenzyl)-1H-pyrazolo[3,4-b]pyridin-3-yl]-7,7-dimethyl-5,7-dihydro-6H-pyrrolo[2,3-e][1,2,4]triazin-6-one]
1.0 µM |  | COC(=O)C(C)(C)c1nnc(-c2nn(Cc3ccc(F)cc3F)c3ncccc23)nc1O [Example 77A, Methyl 2-{3-[1-(2,4-difluorobenzyl)-1H-pyrazolo[3,4-b]pyridin-3-yl]-5-hydroxy-1,2,4-triazin-6-yl}-2-methylpropanoate]
0.3 µM |  | COC(=O)C(C)(C)c1nnc(-c2nn(Cc3c(F)ccc(F)c3F)c3ncc(F)cc23)nc1O [Example 82A, Methyl 2-{3-[5-fluoro-1-(2,3,6-trifluorobenzyl)-1H-pyrazolo[3,4-b]pyridin-3-yl]-5-hydroxy-1,2,4-triazin-6-yl}-2-methylpropanoate]

SMILES | MEC (minimal effective concentration) [1] | IC50 (aorta)
O=C1Nc2nc(-c3nn(Cc4ccccc4F)c4ncccc34)ncc2C1(O)c1ccccc1 (stereo not shown) [Example 22, 2-[1-(2-Fluorobenzyl)-1H-pyrazolo[3,4-b]pyridin-3-yl]-5-hydroxy-5-phenyl-5,7-dihydro-6H-pyrrolo[2,3-d]pyrimidin-6-one] | 0.03 µM | 
